Results on one compound are retold here after patent US9303069B2, “Peptides for treating cancer” (University of Mississippi Medical Center, priority 2014, dated 2016).

Assay [1] has as its system BRCA1-IRIS and survivin. As to the kind of experiment: IHC of SKOV3 tumors for BRCA1-IRIS and survivin. To be noted: SKOV3 tumors after treatment. In kind it is in vivo, mice. The text has this: Isolated tumors were mounted, sectioned and IHC stained for BRCA1-IRIS and survivin. […] It is possible that SKOV3 contain a heterogeneous population of cells that differ in their BRCA1-IRIS expression and thus that the remaining tumors are from those expressing no or low BRCA1-IRIS.
Immunohistochemistry (IHC). Ovarian tissue microarrays comprised of normal, cancer and metastatic tissues were purchased from US Biomax, Inc. Paraffin-embedded tissue sections were de-waxed in xylene and rehydrated in alcohol. Antigen-retrieval for FOXO3a and survivin was performed by heating the slides in citrate buffer (10 μM, pH 6.0) using microwave for 10 minutes. Slides were then cooled to room temperature (RT) and washed with water followed by PBS for 15 minutes each. Antigen-retrieval for BRCA1-IRIS was performed by incubating the slides in pepsin (10 μM) for 20 minutes at 37° C. Endogenous peroxidase activity was suppressed by treating the slides with 3% hydrogen peroxide for 10 minutes. After washing steps slides were incubated for 1 hour at room temperature with antibodies to human FOXO3a (Cell Signaling Technology, USA 1:400) and survivin (Cell Signaling Technology, USA 1:400). For BRCA1-IRIS staining, slides were incubated overnight at 4° C. with monoclonal BRCA1-IRIS antibody at a 1:75 dilution. […]

For assay [2], the system named is BRCA1-IRIS, TrkB, ErbB2, AKT, p-AKT, p-FOXO, Cyclin D1, Bcl-2 and survivin. As to the kind of experiment: Expression of growth and survival proteins in HOSE and HOSE/IRIS cells (Western). In kind it is cell-based, human. To be noted: IRIS peptide 5 μM, cisplatin 10 μM, combination 2.5 μM IRIS peptide + 5 μM cisplatin. The text has this:
HOSE cells overexpressing IRIS show a higher degree of resistance to cisplatin than HOSE cells (compare blue to black line in FIG. 30).

For assay [3], the system named is BRCA1-IRIS. As to the kind of experiment: BRCA1-IRIS expression in ovarian cells (Western analysis). To be noted: 10, 20 or 30 μM of cisplatin for 24 hours. The class given is cell-based, human. The text has this: At these low concentrations of cisplatin BRCA1-IRIS expression was induced in HOSE cells and remained high in HOSE/IRIS cells (FIG. 17). […] Cell lines expressing the lowest levels of BRCA1-IRIS (i.e.

The test system of assay [4] is SKOV3 tumors. Nature of the assay: In vivo efficacy on established SKOV3 tumors. Also noted: species or system mice. Particulars: day 16; cisplatin 5 mg/kg i.p., IRIS peptide 10 mg/kg i.t., every third day, four times. The protocol:
Further, to determine whether IRIS peptide could have any efficacy in vivo and/or whether it sensitizes ovarian tumors to low, clinically relevant concentrations of cisplatin, four sets of nude mice (n=6 each) were subcutaneously injected with SKOV3 cells. Ten days later, when tumors were ˜250 mm^3 in volume, one group was treated with controls (i.e. DMSO delivered i.p. and scrambled peptide delivered directly into the tumors, i.t.), a second group was treated with cisplatin (5 mg/kg, delivered i.p.), a third group was treated with IRIS peptide (10 mg/kg, injected i.t.), and a fourth group was treated with both. Treatments were delivered every third day for a total of four times. For the next 16 days, tumors were measured daily with a caliper. Mice were then sacrificed, and their tumors or their remnants were taken.
Efficacy of BRCA1-IRIS inhibitory peptide, in vivo. Six to eight week old female athymic SCID mice were injected subcutaneously with 2.5×10^6 SKOV3 cells in the flank region. Their respective tumor growth was measured with a caliper. When the tumor volume reached 250 mm^3, mice were randomly grouped into four groups. One group (control) was treated with scrambled peptide (10 mg/kg) and DMSO. A second was treated with BRCA1-IRIS inhibitory peptide (10 mg/kg, body weight). […] Change in tumor volume was measured to monitor the efficacy of the treatment. […]

Assay [5] relates to SKOV3 cells. The class given is cell-based, human. To be noted: then cisplatin 24 hours, read-out: IC50 of cisplatin (survival). The protocol:
Thus, a peptide (hereafter IRIS peptide) composed of a cell/nucleus penetrating signal (FIG. 26) fused to BRCA1-IRIS intron 11 (FIG. 26) was synthesized. Equal numbers of HOSE, HOSE/IRIS, SKOV3, OVCAR3, OVCAR420 and OV-90 cells were grown in the presence of increasing concentrations of IRIS peptide for 48 hours.
To investigate the contribution of ErbB2 and TrkB to BRCA1-IRIS-induced cisplatin resistance, equal numbers of SKOV3 cells were either depleted from BRCA1-IRIS, ErbB2 or TrkB using specific siRNAs for 48 hours before they were (i) exposed to increasing concentrations of cisplatin for another 24 hours or (ii) exposed to IRIS peptide, ErbB2 inhibitor (CP-724714), TrkB inhibitor (K252a) or both for 24 hours, before they were exposed to increasing concentrations of cisplatin for another 24 hours.
Cell viability measurement. Cell viability under different experimental conditions was determined using the MTS assay […]. Briefly, SKOV3, OVACAR3, HOSE and HOSE/IRIS cells (2.5×10^4 cells per well) were seeded in 96 well plates and incubated overnight at 37° C. in 10% humidified CO2 atmosphere in varying concentrations of IRIS peptide, or inhibitors of ErbB2 (CP-724714), EGFR (Erlotinib), TrkB (K252a), JNK (SP600125), p38 (SB203580), ERK (PD98059) and PI3′K/AKT (LY294002) inhibitors for 24 hours at 37° C. Cell Titer 96® Aqueous (Promega, Madison, Wis., USA) was used to measure viability following manufactures instructions. Cell viability (%) was expressed as a ratio to control cells×100. Growth inhibition was also determined by manually counting cells in five different microscopic fields. Change in cell numbers (fold) was expressed as a ratio to control cells×100. All experiments were done in at least triplicates, three different times. * is p≦0.05, ** is p≦0.001 and *** is p≦0.0001.
Transfections of siRNA. siRNAs for human ErbB2 and TrkB were purchased from Ambion and Santa Cruz Biotechnology, USA. Custom synthesized siRNA against BRCA1 IRIS was used. siRNA against luciferase gene was used as the negative control. Sub-confluent cells were transfected in 6- or 96-well plates with ErbB2 (100 nM), TrkB (100 nM), BRCA1 IRIS (200 nM) or control siRNA using Oligofectamine™ reagent (GibcoBRL Inc, USA) following the instructions of the manufacturer. Protein expression was tested by Western blot after 72 hours of siRNA transfection. Cell viability was evaluated by MTS or by manual counting after 72 hours of siRNA exposure alone or in combination with cisplatin exposure (for an additional 24 hours).

Read-outs that look alike come from different tables or passages of the source.

Turning to `N.N.[Cl][Pt][Cl]` [cisplatin], in assay [1], the “BRCA1-IRIS and survivin staining of remaining tumor” value was “increased IRIS and survivin expression”. Also, the “expression of BRCA1-IRIS, TrkB, ErbB2, AKT, p-AKT, p-FOXO, Cyclin D1, Bcl-2 and survivin” value in assay [2] is “increased expression”. For the same compound, the “BRCA1-IRIS expression in HOSE cells” value in assay [3] is given as “induced”. Also, the “reduction in tumor size” value in assay [4] is around 40%. Further, the IC50 (commonly the midpoint of a concentration-inhibition curve) in assay [5] (SKOV3, BRCA1-IRIS silencing (siRNA) 48 hours) was around 2.5 µM; in assay [5] (SKOV3, ErbB2 inhibitor (CP-724714) 24 hours), around 30 µM; in assay [5] (SKOV3, IRIS peptide 24 hours), around 7.5 µM; in assay [5] (SKOV3, TrkB inhibitor (K252a) 24 hours), around 50 µM; in assay [5] (SKOV3, siErbB2 transfected 48 hours), around 7.5 µM; in assay [5] (SKOV3, siLuc transfected 48 hours) it was above 50 µM. The IC50 in assay [5] (SKOV3, siTrkB transfected 48 hours) is around 20 µM; in assay [5] (SKOV3, vehicle treated 24 hours), above 50 µM.
